Experimental data taken from ChEMBL document CHEMBL3769344 (J Med Chem, 2016).

Tested on: Influenza A virus
Assay: Antiviral activity against Influenza A virus A/WSN/33(H1N1) expressing M2 proton channel S31N mutant infected in MDCK cells assessed as reduction in plaque formation preincubated for 30 mins followed by infection measured on day 2 post infection by naphthalene black dye-based assay
Type: functional, organism-based, A/WSN/1933(H1N1)

Compound	EC50 [nM]
NC12CC3CC(CC(C3)C1)C2 [AMANTADINE]	22500
OC12CC3CC(O)(C1)CC(NCc1cc(-c4cccs4)on1)(C3)C2	2500
Oc1ccc(NC23CC4CC(CC(C4)C2)C3)c(O)c1	3200
COc1ccsc1-c1cc(CNC23CC4CC(CC(O)(C4)C2)C3)no1	404
OC1C2CC3CC1CC(NCc1cc(-c4cccs4)on1)(C3)C2 (configuration not stated)	727
OC12CC3CC(C1)CC(NCc1cc(-c4cccs4)on1)(C3)C2	510
c1csc(-c2cc(NC34CC5CC(CC(C5)C3)C4)no2)c1	353

Tested on: Influenza A virus
Assay: Antiviral activity against Influenza A virus A/WSN/33(H1N1) expressing M2 proton channel S31N mutant infected in MDCK cells assessed as plaque formation at 1 uM preincubated for 30 mins followed by infection measured on day 2 post infection by naphthalene black dye-based assay relative to control
Type: functional, A/WSN/1933(H1N1)

Compound	Activity [%]
OC12CC3CC(O)(C1)CC(NCc1cc(-c4cccs4)on1)(C3)C2	69
COc1ccc(-c2cc(CNC34CC5CC(CC(C5)C3)C4)no2)cc1	59
O=C1C2CC3CC1CC(NCc1cc(-c4cccs4)on1)(C3)C2	31
CCCc1cc(CNC23CC4CC(CC(C4)C2)C3)no1	73
c1c(CNC23CC4CC(CC(C4)C2)C3)noc1C1CC1	42
c1cc(-c2nc(CNC34CC5CC(CC(C5)C3)C4)no2)cs1	74
c1csc(-c2cc(CNC34CC5COC(CC(C5)C3)C4)no2)c1 (configuration not stated)	58
c1csc(-c2nnc(CNC34CC5CC(CC(C5)C3)C4)s2)c1	39
COc1ccc(-c2nc(CNC34CC5CC(CC(C5)C3)C4)no2)cc1	92
Clc1ccccc1-c1cc(CNC23CC4CC(CC(C4)C2)C3)no1	84
COc1ccsc1-c1cc(CNC23CC4CC(CC(O)(C4)C2)C3)no1	33
COc1ccc(-c2nc(CNC34CC5CC(CC(C5)C3)C4)no2)c(OC)c1	76
COc1cccc(-c2cc(CNC34CC5CC(CC(C5)C3)C4)no2)c1	39
Fc1cccc(F)c1-c1cc(CNC23CC4CC(CC(C4)C2)C3)no1	56
CC1(O)C2CC3CC1CC(NCc1cc(-c4cccs4)on1)(C3)C2 (configuration not stated)	27
CC(C)c1cc(CNC23CC4CC(CC(C4)C2)C3)no1	66
c1cc(-c2cc(CNC34CC5CC(CC(C5)C3)C4)no2)cs1	47
c1ccc(-c2cc(CNC34CC5CC(CC(C5)C3)C4)no2)cc1	26
c1csc(-c2cc(CNC34CC5CC(C3)C3(CO3)C(C5)C4)no2)c1 (configuration not stated)	72
c1c(CNC23CC4CC(CC(C4)C2)C3)noc1C1CCCCC1	57
c1csc(-c2nc(CNC34CC5CC(CC(C5)C3)C4)no2)c1	66
OC1C2CC3CC1CC(NCc1cc(-c4cccs4)on1)(C3)C2 (configuration not stated)	10
COc1ccccc1-c1nc(CNC23CC4CC(CC(C4)C2)C3)no1	66
c1c(CNC23CC4CC(CC(C4)C2)C3)noc1C1CCC1	42
COc1ccsc1-c1cc(CNC23CC4CC(CC(C4)C2)C3)no1	39
OC12CC3CC(C1)CC(NCc1cc(-c4cccs4)on1)(C3)C2	40
Clc1ccccc1-c1nc(CNC23CC4CC(CC(C4)C2)C3)no1	88
c1csc(-c2cc(NC34CC5CC(CC(C5)C3)C4)no2)c1	32
C(NC12CC3CC(CC(C3)C1)C2)c1noc(C2CC2)n1	82
c1coc(-c2cc(CNC34CC5CC(CC(C5)C3)C4)no2)c1	47
